# Test: Study 1: cloxacillin in milk after intramammary infusion of Injector 1A
# Format: in vivo, cows
# Conditions: single dose, micronised form in an aqueous base
# Method: A number of studies have been conducted in cows to establish the following : - Study 1: Bioavailability of cloxacillin in bovine colostrum following intramammary infusion of Injector 1A. Study 2: Irritancy of aqueous cloxacillin in the bovine mammary gland.
# As a secondary objective plasma levels of Cloxacillin were also measured, in order to assess the extent of systemic absorption.
# Eight animals were infused with Injector 1A in all four quarters, and samples of milk were taken at the following intervals post infusion : 0.5, 1, 2, 3, 4, 6, 8, 12, 24, 32, 48, 72, 96, 120 and 144 hours.
# Quarter results were recorded for all animals (it was not possible to get samples from two of the quarters due to problems associated with hand milking of animals normally used to being machine milked). […] A peak mean value of 5233.4 mg/L was found at the first sampling interval (0.5 hr) with an approximately exponential decline being noted over the next 72 hours.
smiles,measurement,setting,value
Cc1onc(-c2ccccc2Cl)c1C(=O)N[C@@H]1C(=O)N2[C@@H]1SC(C)(C)[C@@H]2C(=O)O [cloxacillin benzathine],Tmax,"bovine, milk, read-out: time to high initial peak of antibiotic",≤ 30 min
same,duration of therapeutic levels,,up to 72 hours
